From patent US11505543B2, “4-oxo-3,4-dihydroquinazoline compounds as inhibitors of human immunodeficiency virus replication” (VIIV HEALTHCARE UK (NO.5) LIMITED, priority 2018, dated 2022) come the findings set out here.

Series [1] can be described thus: Compound cytotoxicity, XTT-based colorimetric assay. It is filed as cell-based. To be noted: human, uninfected MT2 cells, day 4, XTT. As for the experimental part:
Compound cytotoxicity and the corresponding CC50 values were determined using the same protocol as described in the antiviral assay except that uninfected cells were used. Cytotoxicity was assessed on day 4 in uninfected MT2 cells by using a XTT (2,3-bis[2-Methoxy-4-nitro-5-sulfophenyl]-2H-tetrazolium-5-carboxyanilide inner salt)-based colorimetric assay (Sigma-Aldrich, St Louis, Mo.).
For orientation: Formazan colour is commonly taken as a measure of viable cells.

For series [2], the system named is recombinant NL4-3 virus (nef section replaced with Renilla luciferase gene) in MT-2 cells. Description: HIV cell culture assay (antiviral activity, luciferase readout). In kind it is cell-based. To be noted: Renilla, NL43, MT-2 cells infected for 4-5 days with recombinant NL4-3 Renilla luciferase virus, serial dilutions of compound. As for the experimental part: HIV cell culture assay—MT-2 cells, 293T cells and the proviral DNA clone of NL4-3 virus were obtained from the NIH AIDS Research and Reference Reagent Program. MT-2 cells were propagated in RPMI 1640 media supplemented with 10% heat inactivated fetal bovine serum (FBS), 100 μg/ml penicillin G and up to 100 units/mL streptomycin. The 293T cells were propagated in DMEM media supplemented with 10% heat inactivated FBS, 100 μg/mL penicillin G and 100 μg/mL streptomycin. A recombinant NL4-3 proviral clone, in which a section of the nef gene was replaced with the Renilla luciferase gene, was used to make the reference virus used in these studies. The recombinant virus was prepared through transfection of the recombinant NL4-3 proviral clone into 293T cells using Transit-293 Transfection Reagent from Mirus Bio LLC (Madison, Wis.). Supernatent was harvested after 2-3 days and the amount of virus present was titered in MT-2 cells using luciferase enzyme activity as a marker by measuring luciferase enzyme activity. Luciferase was quantitated using the EnduRen Live Cell Substrate from Promega (Madison, Wis.). Antiviral activities of compounds toward the recombinant virus were quantified by measuring luciferase activity in MT-2 cells infected for 4-5 days with the recombinant virus in the presence of serial dilutions of the compound.
The 50% effective concentration (EC50) was calculated by using the exponential form of the median effect equation where (Fa)=1/[1+(ED50/drug conc.)^m] (Johnson VA, Byington RT. Infectivity Assay. In Techniques in HIV Research. ed. Aldovini A, Walker BD. 71-76. New York: Stockton Press. 1990). Curve fitting and analysis were performed with ActivityBase XE Runner software version 9.1.0.4 using model 203 (ID Business Solutions, LTD, Guildford, UK).

pEC50: −log10 of the molar value.

Broadly, the CC50 is the concentration that lowers cell viability or growth by half. Low values mean harm at low concentration, high ones better tolerance by the cells. Usually pEC50 stands for the negative decadic logarithm of the EC50, by convention in mol/L.

In the case of `O=C(Cn1nc(C(F)F)cc1C(F)F)N[C@@H](Cc1cc(F)cc(F)c1)c1nc2cc(-c3ncccn3)ccc2c(=O)n1-c1ccc(Cl)c2c(NS(=O)(=O)C3CC3)nn(CC(F)F)c12` [Example 189, (S)-2-(3,5-bis(difluoromethyl)-1H-pyrazol-1-yl)-N-(1-(3-(4-chloro-3-(cyclopropanesulfonamido)-1-(2,2-difluoroethyl)-1H-indazol-7-yl)-4-oxo-7-(pyrimidin-2-yl)-3,4-dihydroquinazolin-2-yl)-2-(3,5-difluorophenyl)ethyl)acetamide], the CC50 at 4 day in series [1] is more than 500 nM. The pEC50 in series [2] is 8.89.
In the same order, the values of `Cc1cc(-c2ccc3c(=O)n(-c4ccc(Cl)c5c(NS(C)(=O)=O)nn(C)c45)c([C@H](Cc4cc(F)cc(F)c4)NC(=O)Cn4nc(C(F)F)c5c4C(F)(F)[C@@H]4C[C@H]54)nc3c2)ccc1Cl` (atropisomer, axis not shown; (aR)) [Example 31, N-((S)-1-(3-(4-chloro-1-methyl-3-(methylsulfonamido)-1H-indazol-7-yl)-7-(4-chloro-3-methylphenyl)-4-oxo-3,4-dihydroquinazolin-2-yl)-2-(3,5-difluorophenyl)ethyl)-2-((3bS,4aR)-3-(difluoromethyl)-5,5-difluoro-3b,4,4a,5-tetrahydro-1H-cyclopropa[3,4]cyclopenta[1,2-c]pyrazol-1-yl)acetamide] are more than 1000 nM and 8.33.
In the same order, the values of `Cn1nc(NS(C)(=O)=O)c2c(Cl)ccc(-n3c([C@H](Cc4cc(F)cc(F)c4)NC(=O)Cn4nc(C(F)F)c5c4C(F)(F)[C@@H]4C[C@H]54)nc4cc(-c5ccc6c7c(ccnc57)CCO6)ccc4c3=O)c21` (atropisomer, axis not shown; (aR)) [Example 82, N-((S)-1-(3-(4-chloro-1-methyl-3-(methylsulfonamido)-1H-indazol-7-yl)-7-(2,3-dihydropyrano[4,3,2-de]quinolin-7-yl)-4-oxo-3,4-dihydroquinazolin-2-yl)-2-(3,5-difluorophenyl)ethyl)-2-((3bS,4aR)-3-(difluoromethyl)-5,5-difluoro-3b,4,4a,5-tetrahydro-1H-cyclopropa[3,4]cyclopenta[1,2-c]pyrazol-1-yl)acetamide] are more than 1000 nM and 8.15.
The like results for `O=C(Cn1ccc(C2CC2)n1)N[C@@H](Cc1cc(F)cc(F)c1)c1nc2cc(-c3ccccc3Oc3ccccc3)ccc2c(=O)n1-c1ccc(S(=O)(=O)N2CCOCC2)cc1` [Example 42, (S)-2-(3-cyclopropyl-1H-pyrazol-1-yl)-N-(2-(3,5-difluorophenyl)-1-(3-(4-(morpholinosulfonyl)phenyl)-4-oxo-7-(2-phenoxyphenyl)-3,4-dihydroquinazolin-2-yl)ethyl)acetamide] were, in that order, more than 1000 nM and 7.27.
`Cn1nc(NS(C)(=O)=O)c2c(Cl)ccc(-n3c([C@H](Cc4cc(F)cc(F)c4)NC(=O)Cn4nc(C(F)F)c5c4C(F)(F)[C@@H]4C[C@H]54)nc4cc(-c5ccccc5Cl)ccc4c3=O)c21` (atropisomer, axis not shown; (aR)) [Example 43, N-((S)-1-(3-(4-chloro-1-methyl-3-(methylsulfonamido)-1H-indazol-7-yl)-7-(2-chlorophenyl)-4-oxo-3,4-dihydroquinazolin-2-yl)-2-(3,5-difluorophenyl)ethyl)-2-((3bS,4aR)-3-(difluoromethyl)-5,5-difluoro-3b,4,4a,5-tetrahydro-1H-cyclopropa[3,4]cyclopenta[1,2-c]pyrazol-1-yl)acetamide] had a CC50 at 4 day in series [1] of more than 1000 nM. The pEC50 in series [2] is 9.16.
The like results for `Cn1nc(NS(C)(=O)=O)c2c(Cl)ccc(-n3c([C@H](Cc4cc(F)cc(F)c4)NC(=O)Cn4nc(C(F)F)c5c4C(F)(F)[C@@H]4C[C@H]54)nc4cc(-c5cc[nH]n5)ccc4c3=O)c21` (atropisomer, axis not shown; (aR)) [Example 78, N-((S)-1-(3-(4-chloro-1-methyl-3-(methylsulfonamido)-1H-indazol-7-yl)-4-oxo-7-(1H-pyrazol-3-yl)-3,4-dihydroquinazolin-2-yl)-2-(3,5-difluorophenyl)ethyl)-2-((3bS,4aR)-3-(difluoromethyl)-5,5-difluoro-3b,4,4a,5-tetrahydro-1H-cyclopropa[3,4]cyclopenta[1,2-c]pyrazol-1-yl)acetamide] were, in that order, more than 1000 nM and 9.92.
In the same order, the values of `Cn1nc(NS(C)(=O)=O)c2c(Cl)ccc(-n3c([C@H](Cc4cc(F)cc(F)c4)NC(=O)Cn4nc(C(F)F)c5c4C(F)(F)[C@@H]4C[C@H]54)nc4cc(-c5ccc(F)cc5F)ccc4c3=O)c21` [Example 187, N-((S)-1-(3-(4-chloro-1-methyl-3-(methylsulfonamido)-1H-indazol-7-yl)-7-(2,4-difluorophenyl)-4-oxo-3,4-dihydroquinazolin-2-yl)-2-(3,5-difluorophenyl)ethyl)-2-((3bS,4aR)-3-(difluoromethyl)-5,5-difluoro-3b,4,4a,5-tetrahydro-1H-cyclopropa[3,4]cyclopenta[1,2-c]pyrazol-1-yl)acetamide] are more than 1000 nM and 9.55.
The like results for `Cc1nccnc1-c1ccc2c(=O)n(-c3ccc(Cl)c4c(NS(C)(=O)=O)nn(CC(F)F)c34)c([C@H](Cc3cc(F)cc(F)c3)NC(=O)Cn3nc(C(F)F)c4c3C(F)(F)[C@@H]3C[C@H]43)nc2c1` (atropisomer, axis not shown; (aR)) [Example 125, N-((S)-1-(3-(4-chloro-1-(2,2-difluoroethyl)-3-(methylsulfonamido)-1H-indazol-7-yl)-7-(3-methylpyrazin-2-yl)-4-oxo-3,4-dihydroquinazolin-2-yl)-2-(3,5-difluorophenyl)ethyl)-2-((3bS,4aR)-3-(difluoromethyl)-5,5-difluoro-3b,4,4a,5-tetrahydro-1H-cyclopropa[3,4]cyclopenta[1,2-c]pyrazol-1-yl)acetamide] were, in that order, more than 500 nM and 10.27.
For `Cc1cc(C(F)F)nn1CC(=O)N[C@@H](Cc1cc(F)cc(F)c1)c1nc2cc(-c3ccccc3F)ccc2c(=O)n1-c1ccc(Cl)c2c(NS(=O)(=O)C3CC3)nn(CC(F)F)c12` [Example 137, (S)-N-(1-(3-(4-chloro-3-(cyclopropanesulfonamido)-1-(2,2-difluoroethyl)-1H-indazol-7-yl)-7-(2-fluorophenyl)-4-oxo-3,4-dihydroquinazolin-2-yl)-2-(3,5-difluorophenyl)ethyl)-2-(3-(difluoromethyl)-5-methyl-1H-pyrazol-1-yl)acetamide], the CC50 at 4 day in series [1] was more than 1000 nM. For the same compound, in series [2], the pEC50 is 8.08.
The like results for `Cn1nc(NS(C)(=O)=O)c2c(Cl)ccc(-n3c(C(Cc4cc(F)cc(F)c4)NC(=O)Cn4nc(C(F)F)c5c4C(F)(F)[C@@H]4C[C@H]54)nc4cc(-c5ccccc5F)ccc4c3=O)c21` (single isomer, unassigned) [Example 1] were, in that order, more than 1000 nM and 6.68.
